# Results taken from ChEMBL document CHEMBL1201862, “PubChem BioAssay data set” (2004).
#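 Growth conditions: 96-well plates. Treatment: test compound, 48 hours, 5 concentrations. Analysis: linear interpolation between bracketing concentrations; unreached endpoints set to highest concentration. The concentration for 50% growth inhibition is given as GI50.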 Active and inactive are the calls of the source. Rule as the data show it: active = GI50 up to about 1.1 µM and inactive = higher.
# Legend:
# Assay in all cases: DTP human tumour cell line panel, 48 h
# [1] = system: UACC-62
# [2] = system: DU-145
# [3] = system: HCT-15
# [4] = system: OVCAR-8
# [5] = system: NCI-H226
# [6] = system: HCT-116
# [7] = system: HL-60
# [8] = system: SK-MEL-2
# [9] = system: SF-295
# [10] = system: HOP-62
# [11] = system: HCC 2998
# [12] = system: U-251
# [13] = system: SR
# [14] = system: SNB-75
# [15] = system: BT-549
# [16] = system: EKVX
# [17] = system: UO-31
# [18] = system: LOX IMVI
# [19] = system: A549
# [20] = system: NCI-H460
# [21] = system: SNB-19
# [22] = system: ACHN
# [23] = system: COLO 205
# [24] = system: HT-29
# [25] = system: T47D
# [26] = system: MDA-MB-435
# [27] = system: NCI/ADR-RES
# [28] = system: Hs-578T
# [29] = system: SW-620
# [30] = system: SK-MEL-5
# [31] = system: OVCAR-5
# [32] = system: SK-MEL-28
# [33] = system: PC-3
# [34] = system: A498
# [35] = system: K562
# [36] = system: 786-0
# [37] = system: MOLT-4
# [38] = system: RXF 393
# [39] = system: SK-OV-3
# [40] = system: MDA-MB-231
# [41] = system: M14
# [42] = system: CAKI-1
# [43] = system: IGROV-1
# [44] = system: OVCAR-4
# [45] = system: CCRF-CEM
# [46] = system: MCF7
# [47] = system: NCI-H23
# [48] = system: SF-268
# [49] = system: MDA-N
# [50] = system: NCI-H522
# [51] = system: OVCAR-3
# [52] = system: KM12
# [53] = system: SN12C
# [54] = system: RPMI-8226
# [55] = system: Malme-3M
# [56] = system: TK-10
# [57] = system: SF-539
# [58] = system: UACC-257
# [59] = system: HOP-92
smiles,measurement,setting,value
C=C(CCOC)CCC1CCCCC(=C)C1=O (stereo not given),GI50,[1],> 100 µM (inactive)
same,GI50,[2],> 100 µM (inactive)
same,GI50,[3],> 100 µM
same,GI50,[4],> 100 µM (inactive)
same,GI50,[5],> 100 µM (inactive)
same,GI50,[6],> 100 µM (inactive)
same,GI50,[7],> 100 µM (inactive)
same,GI50,[8],> 100 µM (inactive)
same,GI50,[9],> 100 µM (inactive)
same,GI50,[10],> 100 µM (inactive)
same,GI50,[11],> 100 µM (inactive)
same,GI50,[12],> 100 µM (inactive)
same,GI50,[13],> 100 µM (inactive)
same,GI50,[14],> 100 µM (inactive)
same,GI50,[15],> 100 µM (inactive)
same,GI50,[16],> 100 µM (inactive)
same,GI50,[17],> 100 µM (inactive)
same,GI50,[18],> 100 µM (inactive)
same,GI50,[19],> 100 µM (inactive)
same,GI50,[20],> 100 µM (inactive)
same,GI50,[21],> 100 µM (inactive)
same,GI50,[22],> 100 µM (inactive)
same,GI50,[23],> 100 µM (inactive)
same,GI50,[24],> 100 µM (inactive)
same,GI50,[25],> 100 µM (inactive)
same,GI50,[26],> 100 µM (inactive)
same,GI50,[27],> 100 µM (inactive)
same,GI50,[28],> 100 µM (inactive)
same,GI50,[29],> 100 µM (inactive)
same,GI50,[30],> 100 µM (inactive)
same,GI50,[31],> 100 µM (inactive)
same,GI50,[32],> 100 µM (inactive)
same,GI50,[33],> 100 µM (inactive)
same,GI50,[34],> 100 µM (inactive)
same,GI50,[35],> 100 µM (inactive)
same,GI50,[36],> 100 µM (inactive)
same,GI50,[37],> 100 µM (inactive)
same,GI50,[38],> 100 µM (inactive)
same,GI50,[39],> 100 µM (inactive)
same,GI50,[40],> 100 µM (inactive)
same,GI50,[41],> 100 µM (inactive)
same,GI50,[42],> 100 µM (inactive)
same,GI50,[43],> 100 µM (inactive)
same,GI50,[44],> 100 µM (inactive)
same,GI50,[45],> 100 µM (inactive)
same,GI50,[46],> 100 µM (inactive)
same,GI50,[47],> 100 µM (inactive)
same,GI50,[48],> 100 µM (inactive)
same,GI50,[49],> 100 µM (inactive)
same,GI50,[50],> 100 µM (inactive)
same,GI50,[51],> 100 µM (inactive)
same,GI50,[52],63.1 µM (inactive)
same,GI50,[53],> 100 µM (inactive)
same,GI50,[54],> 100 µM (inactive)
same,GI50,[55],> 100 µM (inactive)
CSc1c(C#N)c(O)n(-c2ccc(Cl)cc2)c(=O)c1C(C)=O,GI50,[1],69.3 µM (inactive)
same,GI50,[2],70.6 µM (inactive)
same,GI50,[3],27.3 µM
same,GI50,[4],42.4 µM (inactive)
same,GI50,[5],26.9 µM (inactive)
same,GI50,[56],42.6 µM (inactive)
same,GI50,[57],32.9 µM (inactive)
same,GI50,[6],38.1 µM (inactive)
same,GI50,[7],18.4 µM (inactive)
same,GI50,[8],> 100 µM (inactive)
same,GI50,[11],> 100 µM (inactive)
same,GI50,[12],> 100 µM (inactive)
same,GI50,[13],30.5 µM (inactive)
same,GI50,[14],94.8 µM (inactive)
same,GI50,[15],90.6 µM (inactive)
same,GI50,[16],> 100 µM (inactive)
same,GI50,[17],24.9 µM (inactive)
same,GI50,[18],34.4 µM (inactive)
same,GI50,[19],50.2 µM (inactive)
same,GI50,[20],> 100 µM (inactive)
same,GI50,[21],88.5 µM (inactive)
same,GI50,[23],24.2 µM (inactive)
same,GI50,[24],34.8 µM (inactive)
same,GI50,[25],27.1 µM (inactive)
same,GI50,[26],88.3 µM (inactive)
same,GI50,[27],38.4 µM (inactive)
same,GI50,[28],> 100 µM (inactive)
same,GI50,[29],44.7 µM (inactive)
same,GI50,[30],89.1 µM (inactive)
same,GI50,[31],45.7 µM (inactive)
same,GI50,[32],> 100 µM (inactive)
same,GI50,[33],> 100 µM (inactive)
same,GI50,[34],29.3 µM (inactive)
same,GI50,[35],25.5 µM (inactive)
same,GI50,[36],37.7 µM (inactive)
same,GI50,[37],23 µM (inactive)
same,GI50,[38],33.6 µM (inactive)
same,GI50,[39],> 100 µM (inactive)
same,GI50,[40],88.3 µM (inactive)
same,GI50,[41],89.9 µM (inactive)
same,GI50,[42],18.7 µM (inactive)
same,GI50,[44],37.5 µM (inactive)
same,GI50,[45],17 µM (inactive)
same,GI50,[46],52.4 µM (inactive)
same,GI50,[47],31.5 µM (inactive)
same,GI50,[58],> 100 µM (inactive)
same,GI50,[48],61.7 µM (inactive)
same,GI50,[49],55.5 µM (inactive)
same,GI50,[50],0.433 µM (active)
same,GI50,[51],48.3 µM (inactive)
same,GI50,[52],> 100 µM (inactive)
same,GI50,[53],> 100 µM (inactive)
same,GI50,[54],26 µM (inactive)
same,GI50,[55],23.3 µM (inactive)
CCOC(=O)/C(=C\c1ccc(N(C)C)cc1)S(=O)(=O)C(F)(F)C(F)(F)C(F)(F)C(F)(F)F,GI50,[1],> 100 µM (inactive)
same,GI50,[2],> 100 µM (inactive)
same,GI50,[3],> 100 µM
same,GI50,[4],> 100 µM (inactive)
same,GI50,[5],> 100 µM (inactive)
same,GI50,[56],13 µM (inactive)
same,GI50,[57],> 100 µM (inactive)
same,GI50,[6],> 100 µM (inactive)
same,GI50,[7],> 100 µM (inactive)
same,GI50,[8],> 100 µM (inactive)
same,GI50,[9],> 100 µM (inactive)
same,GI50,[10],> 100 µM (inactive)
same,GI50,[11],> 100 µM (inactive)
same,GI50,[12],> 100 µM (inactive)
same,GI50,[13],> 100 µM (inactive)
same,GI50,[14],> 100 µM (inactive)
same,GI50,[15],52.6 µM (inactive)
same,GI50,[16],> 100 µM (inactive)
same,GI50,[17],55.1 µM (inactive)
same,GI50,[18],> 100 µM (inactive)
same,GI50,[19],> 100 µM (inactive)
same,GI50,[20],> 100 µM (inactive)
same,GI50,[21],> 100 µM (inactive)
same,GI50,[22],> 100 µM (inactive)
same,GI50,[23],> 100 µM (inactive)
same,GI50,[24],> 100 µM (inactive)
same,GI50,[25],> 100 µM (inactive)
same,GI50,[26],> 100 µM (inactive)
same,GI50,[27],> 100 µM (inactive)
same,GI50,[28],> 100 µM (inactive)
same,GI50,[29],> 100 µM (inactive)
same,GI50,[30],> 100 µM (inactive)
same,GI50,[31],> 100 µM (inactive)
same,GI50,[59],> 100 µM (inactive)
same,GI50,[32],> 100 µM (inactive)
same,GI50,[33],> 100 µM (inactive)
same,GI50,[34],> 100 µM (inactive)
same,GI50,[35],> 100 µM (inactive)
same,GI50,[36],> 100 µM (inactive)
same,GI50,[37],> 100 µM (inactive)
same,GI50,[39],> 100 µM (inactive)
same,GI50,[40],> 100 µM (inactive)
same,GI50,[41],> 100 µM (inactive)
same,GI50,[42],> 100 µM (inactive)
same,GI50,[43],> 100 µM (inactive)
same,GI50,[44],> 100 µM (inactive)
same,GI50,[45],> 100 µM (inactive)
same,GI50,[46],> 100 µM (inactive)
same,GI50,[47],> 100 µM (inactive)
same,GI50,[58],> 100 µM (inactive)
same,GI50,[48],> 100 µM (inactive)
same,GI50,[49],> 100 µM (inactive)
same,GI50,[50],> 100 µM (inactive)
same,GI50,[51],> 100 µM (inactive)
same,GI50,[52],> 100 µM (inactive)
same,GI50,[53],> 100 µM (inactive)
same,GI50,[54],> 100 µM (inactive)
same,GI50,[55],> 100 µM (inactive)
OCCNc1nc2c(N3CCCC3)nc(N3CCNCC3)nc2nc1NCc1ccccc1,GI50,[1],17.3 µM (inactive)
same,GI50,[2],11.3 µM (inactive)
same,GI50,[3],16.4 µM
same,GI50,[4],15.9 µM (inactive)
same,GI50,[5],16.3 µM (inactive)
same,GI50,[56],15 µM (inactive)
same,GI50,[57],16.3 µM (inactive)
same,GI50,[6],10.1 µM (inactive)
same,GI50,[7],15.5 µM (inactive)
same,GI50,[8],15 µM (inactive)
same,GI50,[9],17.6 µM (inactive)
same,GI50,[10],2.63 µM (inactive)
same,GI50,[11],15.2 µM (inactive)
same,GI50,[12],11.1 µM (inactive)
same,GI50,[13],13.3 µM (inactive)
same,GI50,[14],13.3 µM (inactive)
same,GI50,[15],16.4 µM (inactive)
same,GI50,[16],13.6 µM (inactive)
same,GI50,[17],15.3 µM (inactive)
same,GI50,[18],14.7 µM (inactive)
same,GI50,[19],17 µM (inactive)
same,GI50,[20],15.5 µM (inactive)
same,GI50,[21],15.8 µM (inactive)
same,GI50,[22],15.5 µM (inactive)
same,GI50,[23],11.7 µM (inactive)
same,GI50,[24],8.15 µM (inactive)
same,GI50,[25],12.5 µM (inactive)
same,GI50,[26],12.4 µM (inactive)
same,GI50,[27],38.5 µM (inactive)
same,GI50,[28],20.3 µM (inactive)
same,GI50,[29],19.1 µM (inactive)
same,GI50,[30],12.6 µM (inactive)
same,GI50,[31],12.1 µM (inactive)
same,GI50,[59],7.8 µM (inactive)
same,GI50,[32],17.5 µM (inactive)
same,GI50,[33],16.9 µM (inactive)
same,GI50,[35],14 µM (inactive)
same,GI50,[36],14.8 µM (inactive)
same,GI50,[37],16 µM (inactive)
same,GI50,[38],11.3 µM (inactive)
same,GI50,[39],16.8 µM (inactive)
same,GI50,[40],15.7 µM (inactive)
same,GI50,[41],15.7 µM (inactive)
same,GI50,[42],16.2 µM (inactive)
same,GI50,[43],11.9 µM (inactive)
same,GI50,[44],17.3 µM (inactive)
same,GI50,[45],10.8 µM (inactive)
same,GI50,[46],14.3 µM (inactive)
same,GI50,[47],18.2 µM (inactive)
same,GI50,[58],17.3 µM (inactive)
same,GI50,[48],16.9 µM (inactive)
same,GI50,[49],11.9 µM (inactive)
same,GI50,[50],12.7 µM (inactive)
same,GI50,[51],4.92 µM (inactive)
same,GI50,[52],11.9 µM (inactive)
same,GI50,[53],16.7 µM (inactive)
same,GI50,[54],16.7 µM (inactive)
same,GI50,[55],19.6 µM (inactive)
